Results published in publication PMC5562778 (Archives of Toxicology, 2017).

How the values were obtained:
[1] = parameters: method as in Van Den Berg et al. [2011]; settings: lower confidence bound of the Benchmark Dose giving 10% extra cancer incidence; ref Van Den Berg et al. [2011]; cited from earlier work
[2] = route not stated; ref Barter et al. [2013]; cited from earlier work
[3] = parameters: method as in Bartoli et al. [1996]; settings: peak at 0.5–2 h; clearance within 7 h of administration; marker for CYP1A2 activity; ref Bartoli et al. [1996]; cited from earlier work
CYP 1A2 [4] = biological target: T1, CYP 1A2 (Homo sapiens, UniProt P05177); settings: cited from earlier work
T1 sequence (P05177 1-516): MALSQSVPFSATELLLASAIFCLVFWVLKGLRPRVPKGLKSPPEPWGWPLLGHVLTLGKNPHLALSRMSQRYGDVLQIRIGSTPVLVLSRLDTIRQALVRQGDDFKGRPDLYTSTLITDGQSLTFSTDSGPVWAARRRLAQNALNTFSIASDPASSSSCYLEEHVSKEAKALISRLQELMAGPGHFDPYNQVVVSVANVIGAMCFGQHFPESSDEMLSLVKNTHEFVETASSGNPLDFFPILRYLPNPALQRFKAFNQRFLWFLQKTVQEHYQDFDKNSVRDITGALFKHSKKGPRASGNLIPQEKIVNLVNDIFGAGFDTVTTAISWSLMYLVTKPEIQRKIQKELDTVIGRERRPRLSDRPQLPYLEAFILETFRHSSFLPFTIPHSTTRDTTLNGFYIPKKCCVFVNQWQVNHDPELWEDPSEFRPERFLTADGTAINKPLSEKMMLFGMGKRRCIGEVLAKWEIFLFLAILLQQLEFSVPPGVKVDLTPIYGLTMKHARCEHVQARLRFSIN

[5] = PBK prediction; route not stated; ref Barter et al. [2013]; cited from earlier work
CYP 1A2 [6] = biological target: T1, CYP 1A2; settings: pH 7.4
Description: The quality of the Chinese and Caucasian liver microsomes was checked by measuring the activity of CYP1A2 and CYP2A6 by the method of Yang et al. ([2012]). The quality of Chinese and Caucasian liver S9 samples was checked by measuring the SULT activity based on the method provided by Wang et al. ([2006]). The details of the methods for the microsomal and S9 in vitro incubations and UPLC analysis for assessing the metabolic capabilities of CYP and SULT enzymes can be found in the supporting materials 1.
The quality of the Chinese and Caucasian liver microsomes was checked by measuring the activity of CYP 1A2 and CYP 2A6 by the method of Yang et al. (Yang et al. 2012). CYP 1A2 and CYP 2A6 are predominant enzymes for formation of 1'-hydroxyestragole (Jeurissen et al. 2007). The activity of CYP 1A2 was measured with the substrate phenacetin, and the activity of CYP 2A6 was checked using the substrate coumarin. […] The samples were centrifuged for 5 min at 16, 000g to precipitate microsomal proteins and analyzed by UPLC.
Before UPLC analysis, all samples were centrifuged for 5 min at 16, 000g to precipitate microsomal or cytosolic proteins. Supernatant of each sample was analyzed on UPLC using a BEH C18 (1.7 μm 2.1×50 mm) column with a guard column and a diode array detector (Acquity, Waters).

Compound | BMDL10 [1] | Experimentally observed clearance, lower in Chinese individuals than in Caucasian volunteers [2] [%] | Peak plasma concentrations and apparent oral clearance, Chinese versus Caucasian subjects [3] | Catalytic efficiency of CYP 1A2, lower for Chinese liver microsomes (CYP 1A2 [4]) [fold] | Catalytic efficiency for CYP 1A2 (CYP 1A2 [4]; microsomes) | Predicted clearance, lower in Chinese than in Caucasian subjects [5] [%] | Catalytic efficiency of CYP 1A2 mediated conversion, lower in Chinese than Caucasian liver microsomes (CYP 1A2 [6]; microsomes) [fold] | Catalytic efficiency (Vmax/Km), CYP 1A2 mediated O-deethylation (CYP 1A2 [6])
C=CCc1ccc(OC)cc1 [Estragole, 1-allyl-4-methoxybenzene] | 3.3–6.5 mg/kg bw/day | – | – | – | – | – | – | –
CCOc1ccc(NC(C)=O)cc1 [phenacetin] | – | 28 | not differ | 2 | 0.6-51.4 µl/min/(mg microsomal protein) | 36 | 3 | 3.1 µl/min/(mg microsomal protein)
